In patent publication US20220127297A1, “Novel Antibacterial 3"-Derivatives Of 4,6-Disubstituted 2,5-Dideoxystreptamine Aminoglycoside Antibiotics” (AGILeBiotics B.V., priority 2018, published 2022):
Converted amounts (≈) assume the structure as drawn.

Tested on: E. coli (AAC(6′)Ie-APH(2″)Ia)
Assay: MIC 50, broth micro-dilution, E. coli expressing AAC(6′)Ie-APH(2″)Ia
Type: cell-based, Escherichia coli
Settings: ATCC25922 harboring plasmid encoding AAC(6′)Ie-APH(2″)Ia
In short: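 Two-fold dilution series of compound (64 μM top, final) in MH2 broth, inoculated with plasmid-transformed E. coli ATCC 25922 at OD 0.1 and incubated 18 h, 37° C. Half-maximal growth by OD600 defined MIC50.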

Structure (SMILES)	MIC50 [µM]
NCC[C@H](O)C(=O)N[C@@H]1C[C@H](N)[C@@H](O[C@H]2O[C@H](CN)[C@@H](O)[C@@H](O)[C@H]2O)[C@H](O)[C@H]1O[C@H]1O[C@H](CO)[C@@H](O)[C@H](N)[C@H]1O [ABX3002, 3′Epi-KanaA-AHB]	16 (≈ 9.37 µg/mL)
NCC[C@H](O)C(=O)N[C@@H]1CC(N)[C@@H](O[C@H]2OC(CN)[C@@H](O)CC2N)[C@H](O)C1OC1O[C@H](CO)[C@@H](O)C(N)[C@H]1O (some centres unmarked) [ABX5004, Tobra-AHB]	4 (≈ 2.27 µg/mL)
NCCC(O)C(=O)NC1CC(N)C(OC2OC(CN)C(O)C(O)C2N)C(F)C1OC1OC(CO)C(O)C(N)C1O (centres unmarked) [ABX4007, KanaB-AHB-F]	2 to 4

Same assay, conditions: Escherichia coli, ATCC25922, ATCC25922 harboring plasmid encoding AAC(6′)Ie-APH(2″)Ia

Structure (SMILES)	MIC50 [µM]
N=C(NCc1cnc[nH]1)NC1[C@@H](O)C(OC2[C@@H](F)[C@H](O[C@H]3OC(CN)[C@@H](O)CC3N)C(N)C[C@H]2NC(=O)[C@@H](O)CCN)O[C@H](CO)[C@H]1O (some centres unmarked) [ABX5050, Tobra-AHB-F-Gua imidazol-5-yl methyl]	1 (≈ 0.693 µg/mL)
N=C(NCc1ccncc1)NC1[C@@H](O)C(OC2[C@@H](F)[C@H](O[C@H]3OC(CN)[C@@H](O)CC3N)C(N)C[C@H]2NC(=O)[C@@H](O)CCN)O[C@H](CO)[C@H]1O (some centres unmarked) [ABX5048, Tobra-AHB-F-Gua pyridin-4-yl methyl]	0.5 (≈ 0.352 µg/mL)
N=C(N)NC1[C@@H](O)C(OC2[C@@H](F)[C@H](O[C@H]3OC(CN)[C@@H](O)[C@H](O)C3O)C(N)C[C@H]2NC(=O)[C@@H](O)CCN)O[C@H](CO)[C@H]1O (stereo partly drawn) [ABX3003, 3′epi-KanaA-AHB-F-Gua]	2 (≈ 1.26 µg/mL)
NCC[C@H](O)C(=O)N[C@@H]1C[C@H](N)[C@@H](O[C@H]2O[C@H](CN)[C@@H](O)[C@H](O)[C@H]2O)[C@H](O)[C@H]1O[C@H]1O[C@H](CO)[C@@H](O)[C@H](N)[C@H]1O [Amikacin, amikacin, reference compound]	4 to 8 (≈ 2.34 to 4.68 µg/mL)
N=C(N)NC1[C@@H](O)C(OC2[C@@H](F)[C@H](O[C@H]3OC(CNCCO)[C@@H](O)CC3N)C(N)C[C@H]2NC(=O)[C@@H](O)CCN)O[C@H](CO)[C@H]1O (some centres unmarked) [ABX5045, 6N-2-hydroxy-ethyl-Tobra-AHB-F-Gua]	0.5 (≈ 0.328 µg/mL)
